Four compounds from ChEMBL document CHEMBL1201862, “PubChem BioAssay data set” (2004) can be followed below.

Among the test systems are OVCAR-5; IGROV-1; HOP-92; MCF7; Hs-578T; RPMI-8226; SK-MEL-2; DU-145; NCI-H522; 786-0; OVCAR-3; A549; A498; Malme-3M; HT-29; HCC 2998; UACC-257; LOX IMVI; MOLT-4; KM12.
Holding throughout (experiment): NCI tumour cell line growth inhibition, 48 h

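Five concentrations, 48 hours, 96-well plates. GI50: concentration for 50% inhibition of growth.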 Active and inactive are the calls of the source. Cut-off read from the data, not from the text of the source: active = GI50 up to about 1.1 µM and inactive = higher.

For the compound `COc1cc(C2c3cc4c(cc3OC(NCc3ccccc3)C2C)OCO4)cc(OC)c1OC` (stereo not given), the GI50 with OVCAR-5 was 1.09 µM (active); with IGROV-1, 0.448 µM (active); with HOP-92, 2 µM (inactive); in the experiment on MCF7, 0.439 µM (active); in the experiment on Hs-578T, 0.279 µM (active); with RPMI-8226, 0.381 µM (active). The GI50 in the experiment with SK-MEL-2 is 0.675 µM (active); in the experiment with DU-145 it was 0.406 µM (active); in the experiment with NCI-H522 it was 0.339 µM (active); in the experiment on 786-0 it was 0.357 µM (active); with OVCAR-3 it was 0.298 µM (active); with A549, 0.631 µM (active). For the same compound, the GI50 is 0.667 µM (active) in the experiment with A498; 0.254 µM (active) in the experiment on Malme-3M; 0.337 µM (active) with HT-29; 0.687 µM (active) in the experiment with HCC 2998; 6.92 µM (inactive) in the experiment on UACC-257; 0.551 µM (active) with LOX IMVI. Also, the GI50 is 0.653 µM (active) with MOLT-4 and 0.377 µM (active) in the experiment on KM12.
With `C/C(=N\Nc1ccccc1)C(CN(C)C)C(c1ccccc1)c1c(O)c2ccccc2oc1=O` (stereo not given), the GI50 in the experiment on OVCAR-5 was > 100 µM (inactive); with IGROV-1, > 100 µM (inactive); in the experiment on HOP-92 it was > 35.2 µM (inactive); with MCF7 it was > 100 µM (inactive); in the experiment on Hs-578T, > 100 µM (inactive); in the experiment with RPMI-8226 it was > 66.7 µM (inactive). Besides, the GI50 in the experiment on SK-MEL-2, in the experiment with DU-145, with NCI-H522, in the experiment on 786-0, with OVCAR-3 and in the experiment with A549 was > 100 µM (inactive) each time. Besides, the GI50 with A498 was > 100 µM (inactive); in the experiment with Malme-3M, > 83 µM (inactive); in the experiment with HT-29, > 100 µM (inactive); in the experiment on HCC 2998 it was > 100 µM (inactive); in the experiment with UACC-257, > 100 µM (inactive); with LOX IMVI, > 100 µM (inactive). The figures for the GI50 in the experiment on MOLT-4 and with KM12 were 42.1 µM (inactive) and > 100 µM (inactive), respectively.
Consider `Cc1nccn1S(=O)(=O)c1ccc(Cl)cc1`, for which the GI50 was 64.6 µM (inactive) with OVCAR-5; 37.4 µM (inactive) in the experiment on IGROV-1; 16.9 µM (inactive) in the experiment with HOP-92; 45 µM (inactive) in the experiment with MCF7; 44.9 µM (inactive) in the experiment with Hs-578T; 48.6 µM (inactive) with RPMI-8226. The GI50 is 72.9 µM (inactive) in the experiment with SK-MEL-2; 81.8 µM (inactive) in the experiment on DU-145; 27.9 µM (inactive) with NCI-H522; > 100 µM (inactive) with 786-0; 54.8 µM (inactive) in the experiment with OVCAR-3; > 100 µM (inactive) with A549. Moreover, the GI50 in the experiment on A498 is 36.1 µM (inactive); in the experiment on Malme-3M, 34.8 µM (inactive); with HT-29, 35 µM (inactive); in the experiment with HCC 2998 it was 29.2 µM (inactive); in the experiment on UACC-257, 42.5 µM (inactive); with LOX IMVI, 41.5 µM (inactive). In addition, the GI50 with MOLT-4 is 56.9 µM (inactive); in the experiment on KM12 it was 42.5 µM (inactive).
Turning to `Cc1cccc(C)c1NC(=O)/C(Cc1nc2ccc([N+](=O)[O-])cc2nc1O)=N\NC(N)=O`, the GI50 in the experiment with OVCAR-5 was > 100 µM (inactive); in the experiment with IGROV-1, 89.3 µM (inactive); in the experiment with HOP-92, 57.8 µM (inactive); with MCF7 it was 63.1 µM (inactive); with Hs-578T, > 100 µM (inactive); with RPMI-8226 it was 37.9 µM (inactive). Moreover, the GI50 with SK-MEL-2 was > 100 µM (inactive); with DU-145, > 100 µM (inactive); in the experiment with NCI-H522 it was 31.6 µM (inactive); in the experiment with 786-0 it was > 100 µM (inactive); in the experiment with OVCAR-3, > 100 µM (inactive); in the experiment with A549, > 100 µM (inactive). The GI50 in the experiment with A498 was 82.4 µM (inactive); in the experiment with Malme-3M it was > 100 µM (inactive); with HT-29, > 100 µM (inactive); in the experiment on HCC 2998, > 100 µM (inactive); with UACC-257 it was > 100 µM (inactive); in the experiment with LOX IMVI, 22.1 µM (inactive). Moreover, the results for the GI50 in the experiment with MOLT-4 and in the experiment with KM12 were 31.6 µM (inactive) and 57.5 µM (inactive), respectively.
